Experimental data from patent publication US11084803B2, “Activators of class I histone deacetylases (HDACs) and uses thereof” (Massachusetts Institute of Technology, priority 2011, dated 2021).
Entries after “also recorded” stand apart in the source; their conditions may differ.

Experiments:
[1] = tested on: DIV 14 cortical neurons; test: Neuronal excitotoxicity model, MAP2 staining of dendrites; format: cell-based; details: compound 20 h; 50 μM glutamate 1 h; p<0.01 for significant
Procedure: The neuroprotection potential of the candidate compounds were also tested using a neuronal excitoxicity model. DIV 14 cortical neurons were treated with the compounds for 20 h, 50 μM glutamate was added to the culture 1 h before processing the samples for immunocytochemistry. […] Ginkgetin was used as a positive control.

[2] = target: T1, Recombinant, full-length human HDAC1 (Homo sapiens, UniProt Q13547); test: Primary HDAC1 high-throughput screen, microfluidics-based deacetylase assay, single concentration; format: biochemical; details: for Average activation % during HTS (10 μM): substrate FAM-TSRHKacKL; for Percent activation (%) Replicate 1 / Percent activation (%) Replicate 2: high-throughput screening, 6 h; for Average activation % during HTS (10 μM) / Percent activation (%) Replicate 1 / Percent activation (%) Replicate 2: 10 μM
T1 construct: FLAG (C); purchased BPS Biosciences (San Diego, Calif.); host or cells: insect cells (Sf9)
Procedure: Recombinant, full-length human HDAC1 (GenBank Accession No. NM_004964) with a C-terminal FLAG tag was produced by BPS Biosciences (San Diego, Calif.) using large-scale insect cell protein expression and purification in order to support a large-scale high-throughput screen (HTS).
Compounds were tested with a reaction time of 6 h with compounds tested at a single concentration (10 μM) in duplicate. As a positive control, the biflavonoid gingketin was chosen.
Compounds were tested in duplicate at 10 μM nominal final concentration in 384-well plate format. The reference activator compound, ginkgetin (50 μM), was included in duplicates in each HTS plate as a positive control condition, 24 negative control samples (DMSO only) were included in each plate to provide for the 0% activation baseline.
Within each HTS plate, the effect of individual compounds on the enzymatic activity of HDAC1 was calculated as % change in the conversion of the peptide substrate relative to the average substrate conversion value calculated across the 24 negative control samples.

[3] = target: T2, recombinant HDAC1 (Homo sapiens, UniProt Q13547); test: Secondary HDAC1 microfluidics-based assay, 8-point dose response, substrate FAM-TSRHKacKL; format: biochemical; details: for Emax: read-out: Maximum activation % during dose response (50 μM maximum); for AC50 / activation of up to (HDAC1): dose response 50 μM to 0.02 μM
T2 construct: FLAG (C); purchased BPS Biosciences (San Diego, Calif.); host or cells: insect cells (Sf9)

[4] = tested on: HT-22 cells; test: Etoposide-induced DNA damage stress in HT-22 cells, cell viability; format: cell-based; details: 5 μM for DAC-001 and DAC-003, 10 μM for others; 3 h before 2 μM etoposide; 72 h; p<0.001
Procedure: (§1) HT-22 cells, a hippocampal neuron derived cell line, were used to model neurodegeneration. Two types of insults were used. […] Etoposide, a topoisomerase II inhibitor, stressed cells through DNA damage. These two types of stresses have been documented in neurodegenerative diseases.
Similarly, HT-22 cells were pre-incubated with compounds (5 μM for DAC-001 and DAC-003; 10 μM for others) for 3 h. Then, 2 μM etoposide was added to the culture medium. Cell viability was measured 72 h later (FIG. 5B).

[5] = tested on: histone lysine residues known to be HDAC1 targets in HEK293T cells; test: Histone acetylation in HEK293T cells by Western blot; format: cell-based, Human; details: 10 μM or 50 μM, 20 h
Procedure: DAC compounds were added to HEK293T cells for 20 h. Vehicle was DMSO. Histones were acid-extracted and analyzed by Western blot for Ac-H3K56, Ac-H4K12, Ac-H3K14 and Ac-H2B. Histone 3 was used as the loading control.
Next, what was tested was whether a treatment of HDAC1 activators can increase HDAC1 enzymatic activity in cultured cells. Human HEK293T cells were treated with compounds at different concentrations (10 μM or 50 μM) for 20 h. Histone proteins were extracted, and Western blotting was used to analyze the acetylation of certain histone lysine residues known to be HDAC1 targets.

[6] = target: recombinant HDAC2 (Homo sapiens, UniProt Q92769); test: Microfluidics-based deacetylase assay with HDAC2; format: biochemical; details: dose response
Procedure: (§2) Based upon the results of the HDAC1 activator screen performed, a total of 21 compounds (for structures, see FIGS. 6A to 6C) were initially selected as hits due to their ability to enhance the deacetylase activity of recombinant HDAC1. Those hits, designated as “DACs” (deacetylase activating compounds), were measured using a microfluidics-based assay with an acetylated peptidic substrate (FAM-TSRHKacKL) over a reaction time of 6 h. The 21 HTS hits plus two controls: ginkgetin (an activator) and TSA (trichostatin A, an inhibitor; for its structure, see FIG. 6A) were retested in an 8-point dose response ranging from 50 μM to 0.02 μM.
(§3) Microfluidics-based deacetylase assays were also performed using recombinant HDAC2, HDAC3, and HDAC8 to determine the selectivity of the compounds. Many of the confirmed compounds also activated HDAC2 isoform to a similar or even greater extent. Some compounds activated HDAC3 and inhibited the HDAC8 isoform.

[7] = target: recombinant HDAC3 (Homo sapiens, UniProt O15379); test: Microfluidics-based deacetylase assay with HDAC3; format: biochemical; parameters: dose or concentration left out as unconfirmed; details: read-out: maximal effect (activation of HDAC3)
Procedure: as §2, §3

[8] = tested on: HT-22 cells; test: Glutamate-induced oxidative stress in HT-22 cells, CellTiter-Glo viability; format: cell-based; details: compound 3 h before 2.5 mM glutamate; p<0.05 versus vehicle; 10 μM DAC-003
Procedure: as §1
HT-22 cells were treated with compounds for 3 h prior to the addition of 2.5 mM glutamate. Cell viability was measured by CellTiter-Glo assays (Promega) (FIG. 5A).

[9] = 8-point dose response 50 μM to 0.02 μM, 6 h

T2 sequence (Q13547 whole entry): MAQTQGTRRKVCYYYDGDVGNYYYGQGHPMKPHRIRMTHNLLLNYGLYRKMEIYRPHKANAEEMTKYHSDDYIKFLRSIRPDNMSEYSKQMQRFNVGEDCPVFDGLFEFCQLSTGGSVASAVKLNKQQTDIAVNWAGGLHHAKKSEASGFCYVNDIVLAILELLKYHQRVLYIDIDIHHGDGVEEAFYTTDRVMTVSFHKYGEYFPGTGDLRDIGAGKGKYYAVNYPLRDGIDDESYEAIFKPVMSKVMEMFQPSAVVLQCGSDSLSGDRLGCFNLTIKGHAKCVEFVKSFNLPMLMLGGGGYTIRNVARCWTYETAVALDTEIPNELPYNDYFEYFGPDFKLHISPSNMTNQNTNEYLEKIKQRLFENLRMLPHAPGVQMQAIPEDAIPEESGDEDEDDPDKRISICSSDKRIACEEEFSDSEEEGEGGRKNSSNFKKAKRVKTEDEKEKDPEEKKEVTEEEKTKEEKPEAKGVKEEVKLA
T1 sequence (Q13547 whole entry): as above
Sequence of recombinant HDAC2 (Q92769 whole entry, species assumed): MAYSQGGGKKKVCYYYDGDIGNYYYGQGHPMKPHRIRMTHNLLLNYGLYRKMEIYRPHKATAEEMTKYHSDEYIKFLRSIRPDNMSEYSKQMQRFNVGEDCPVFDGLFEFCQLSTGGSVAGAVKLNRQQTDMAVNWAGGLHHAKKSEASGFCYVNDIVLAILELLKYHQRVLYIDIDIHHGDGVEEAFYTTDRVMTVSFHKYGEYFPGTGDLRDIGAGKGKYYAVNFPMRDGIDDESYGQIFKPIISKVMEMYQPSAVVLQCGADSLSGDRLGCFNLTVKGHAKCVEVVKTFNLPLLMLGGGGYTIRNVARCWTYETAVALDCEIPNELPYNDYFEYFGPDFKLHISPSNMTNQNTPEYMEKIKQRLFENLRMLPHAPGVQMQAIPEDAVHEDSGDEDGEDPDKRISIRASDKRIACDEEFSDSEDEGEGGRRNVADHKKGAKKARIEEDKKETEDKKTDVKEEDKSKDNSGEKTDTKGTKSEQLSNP
Sequence of recombinant HDAC3 (O15379 whole entry, species assumed): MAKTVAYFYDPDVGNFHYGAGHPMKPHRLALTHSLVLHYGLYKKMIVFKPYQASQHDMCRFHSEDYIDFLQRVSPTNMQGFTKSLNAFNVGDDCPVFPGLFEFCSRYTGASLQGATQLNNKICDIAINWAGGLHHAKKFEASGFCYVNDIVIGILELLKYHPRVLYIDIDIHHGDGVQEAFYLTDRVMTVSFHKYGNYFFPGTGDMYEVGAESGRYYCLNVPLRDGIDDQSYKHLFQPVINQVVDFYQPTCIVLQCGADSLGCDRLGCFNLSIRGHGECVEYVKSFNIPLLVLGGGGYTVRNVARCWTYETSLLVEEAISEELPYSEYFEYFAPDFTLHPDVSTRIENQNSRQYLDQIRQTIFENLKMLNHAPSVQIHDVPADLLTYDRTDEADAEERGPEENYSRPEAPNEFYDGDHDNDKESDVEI
Sequence of recombinant HDAC3 (Q9Y618 395-489 partner limits assumed, species assumed): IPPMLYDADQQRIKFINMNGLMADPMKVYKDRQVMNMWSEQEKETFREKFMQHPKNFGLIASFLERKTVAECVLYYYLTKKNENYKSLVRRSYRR

Molecule	protection of neurons from excitotoxicity (retention of dendrites) [1]	Average activation % during HTS (10 μM) [2] [%]	Percent activation (%) Replicate 1 [2] [%]	Percent activation (%) Replicate 2 [2] [%]	Emax [3, 9] [%]	AC50 [3] [µM]	activation of up to (HDAC1) [3]	protection against DNA damage stress (cell viability) [4]	levels of acetylated histones (Ac-H3K56, Ac-H3K14, Ac-H4K12, Ac-H2B) [5]	AC50 [6] [µM]	Emax ([6]; read-out: maximal effect (activation of HDAC2)) [%]	Emax [7] [%]	Average effect (positive control) ([2]; ginkgetin 50 μM, 580 measurements, standard deviation: 4%) [% activation]	Emax at 10 µM ([3]; plateau at 10 μM, read-out: maximal effect (activation of HDAC1)) [%]	Maximum activation % during dose response (50 μM maximum) [3, 9] [%]	effect on HDAC isoforms in dose response ([3]; all HDAC isoforms)	protection from oxidative stress (cell viability) [8]	conversion of peptidic substrate FAM-TSRHKacKL to FAM-TSRHKKL (microfluidic fluorescence reader trace) ([2]; FIG. 3A, 3B)
O=C(NC(=S)Nc1ccc(-c2ccc(CO)o2)cc1)c1cccs1 [DAC-002]	trend of protection	54.7	52.7	56.6	221	8.31	≤ 221%	significantly protect cells from DSB-induced cell death; also recorded: significant protection	reduced the levels of Ac-H3K56, Ac-H3K14, Ac-H4K12 and Ac-H2B	–	–	–	–	–	–	–	–	–
COc1cc(O)c2c(=O)cc(-c3ccc(OC)c(-c4c(O)cc(O)c5c(=O)cc(-c6ccc(O)cc6)oc45)c3)oc2c1 [ginkgetin, reference compound]	–	25.6	–	–	23	–	–	–	–	28	165	20	26	20	–	–	–	–
trichostatin A [reference compound]	–	0	–	–	–	–	–	–	–	–	–	–	–	–	0	dose dependent inhibition of all HDAC isoforms	–	–
COc1ccc(CNc2cc(C)ccc2C)c(OC)c1 [DAC-012]	–	17.7	17.5	17.9	26	–	–	significantly protect cells from DSB-induced cell death; also recorded: significant protection	–	–	–	–	–	–	–	–	trend of protection	–
Cc1cccc2c1[nH]c1nc(N/N=C/c3ccc(O)c(O)c3)nnc12 [DAC-003]	trend of protection	24.6	24.2	24.9	34	–	–	significantly protect cells from DSB-induced cell death; also recorded: significant protection	reduced the levels of Ac-H3K56, Ac-H3K14, Ac-H4K12 and Ac-H2B	–	–	–	–	–	–	–	significantly protect cells from oxidative insults; also recorded: significantly protect cells from oxidative stress	–
CCC(=O)C1(Sc2nc3ccccc3[nH]2)CC(C)(C)OC1=O (stereo not shown) [DAC-009]	–	18.7	15.1	22.2	12	–	–	significantly protect cells from DSB-induced cell death; also recorded: significant protection	reduced the levels of Ac-H3K56, Ac-H3K14, Ac-H4K12 and Ac-H2B	–	–	–	–	–	–	–	–	–
Cc1ccc(C(=O)NC(=S)Nc2ccc(-c3ccc(CO)o3)cc2)cc1 [DAC-001]	significant protection	130.5	122.6	138.4	287	4.05	up to 287%	significantly protect cells from DSB-induced cell death; also recorded: significant protection	reduced the levels of Ac-H3K56, Ac-H3K14, Ac-H4K12 and Ac-H2B	–	–	–	–	–	–	–	–	increased conversion
